Test results from patent publication US7713994B2 (Wyeth LLC, priority 2005, dated 2010).
Like-named read-outs stand apart in the source and are kept apart here.

What was measured:
cyclin B/CDK1 enzyme = molecular target: T1, cyclin B/CDK1 enzyme (Homo sapiens, UniProt P06493); test: CDK1 ELISA kinase assay (phospho-Rb ser 795 detection); type: biochemical
T1 construct: purchased New England BioLabs; host or cells: Sf9 insect cells, recombinant baculovirus
Method in brief: (§1)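 Partially purified Sf9-expressed cyclin D1/CDK4, cyclin E/CDK2 or cyclin B/CDK1 phosphorylated plate-bound GST-Rb C-terminal fragment with 200 μM ATP at 30° C for 1 h.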

HCT-116 = test: Cytotoxicity assay (SRB), HCT-116; type: cell-based; conditions: HCT116 cells, SRB, read-out: In Vitro Cellular Activity IC50 HCT116
Method in brief: (§2)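 Overnight-seeded monolayers (4000–12000 cells/well by line) receive compound in 5% FBS medium at 37 °C, 7% CO2. After 3 d, or 6 d for BT474, cellular protein is fixed with cold TCA, stained with SRB and read at 540 nm against untreated wells.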

LoVo = test: Cytotoxicity assay (SRB), LoVo; type: cell-based; conditions: LoVo cells, SRB, read-out: In Vitro Cellular Activity IC50 LOVO
Method in brief: as §2

cyclin E/CDK2 enzyme = molecular target: T2, cyclin E/CDK2 enzyme (Homo sapiens, UniProt P24941); test: CDK2 ELISA kinase assay (phospho-Rb ser 795 detection); type: biochemical
T2 construct: made in house; host or cells: Sf9 insect cells, recombinant baculovirus
Method: • 1. High-binding ELISA microtiter plates (Costar) were coated with 40 μl of the kinase substrate (GST fusion of C-terminal fragment of the retinoblastoma susceptibility gene product) diluted to 10 μg/ml in tris-buffered saline (TBS), overnight at 4° C. • 2. Non-specific binding sites were blocked for 1 hour at 4° C. with Superblock in TBS (Pierce), and the plates rinsed with water. • 3. For the screen, 1.5 μl of test compound (200 μg/ml stock in 20% DMSO/20 mM HEPES, pH 7.5) was added to each well. Final dose of the test compound in the assay was 10 ug/ml. […] The kinase reaction (30 μl) was dispensed into each well. Reactions contained 200 μM ATP, 0.5 mg/ml bovine serum albumin (BSA; Sigma), and 0.5 μl partially purified cyclin D1/cdk 4 enzyme*. The enzyme complex is expressed in insect cells (Sf9) infected with recombinant baculovirus and partially purified using ammonium sulfate fractionation. Reaction volumes were adjusted to 30 μl with kinase assay buffer (50 mM HEPES, pH 7.5, 10 mM MgCl2, 5% glycerol, 10 mM 2-mercaptoethanol). • *: For CDK2 assay, 1.0 μl cyclin E/CDK2 enzyme (diluted 1:1000 in kinase assay buffer) was used. The enzyme is isolated from insect cells (Sf9) infected with recombinant baculovirus and partially purified using ammonium sulfate fractionation. For CDK1 assay, 0.08 μl cyclin B/CDK1 enzyme [New England BioLabs; the enzyme is isolated from insect cells (Sf9) infected with recombinant baculovirus carrying human cdc 2 and human cyclin B] was used.
[…] • 5. Plates were incubated at 30° C. for 1 hour. • 6. The reaction mixture was removed by aspiration and replaced with 250 μl TBS containing 0.1% Tween-20 and 5% nonfat dry milk (blocking buffer). The plates were incubated at 4° C. for 1 hour. • 7. The blocking buffer was removed and replaced with 50 μl of the primary antibody [anti-phospho-Rb ser 795 (New England BioLabs) diluted 1:1000 in blocking buffer]. Incubation was at 4° C. for 16-20 hours. • 8. The wells were rinsed 3 times with 250 μl of TBS containing 0.1% Tween-20 followed by the addition of 50 μl of secondary antibody [anti-rabbit IgG conjugated to horseradish peroxidase (Amersham Life Science) diluted 1:1000 in blocking buffer]. • 9. After a 1 hour incubation at room temperature, the wells were rinsed 3 times with 250 μl of TBS/0.1% Tween 20. • 10. TMB (3,3′,5,5′-tetramethylbenzidine dihydrochloride) substrate solution (100 μl; Pierce) was added to each well and the color development reaction allowed to proceed 5-10 minutes at room temperature with shaking. The reaction was stopped by the addition of 2N sulfuric acid (100 μl) and the absorbance values read at 450 nm in a microplate reader (Molecular Devices). Analysis of Results: • 1. The percentage of the absorbance value in wells containing the test compound relative to control wells (no test agent) was determined. • 2. IC50 values of selected compounds were determined from inhibition curves, after subtracting background values (no substrate).

MCF-7 = test: Cytotoxicity assay (SRB), MCF-7; type: cell-based; conditions: MCF-7 cells, SRB, read-out: In Vitro Cellular Activity IC50 MCF-7
Method in brief: as §2

BT474 = test: Cytotoxicity assay (SRB), BT474; type: cell-based
Method in brief: as §2

cyclin D1/cdk 4 enzyme = molecular target: T3, cyclin D1/cdk 4 enzyme (Homo sapiens, UniProt P11802); test: CDK4 ELISA kinase assay (phospho-Rb ser 795 detection); type: biochemical
T3 construct: made in house; host or cells: Sf9 insect cells, recombinant baculovirus
T3 sequence (P11802 whole entry, species assumed): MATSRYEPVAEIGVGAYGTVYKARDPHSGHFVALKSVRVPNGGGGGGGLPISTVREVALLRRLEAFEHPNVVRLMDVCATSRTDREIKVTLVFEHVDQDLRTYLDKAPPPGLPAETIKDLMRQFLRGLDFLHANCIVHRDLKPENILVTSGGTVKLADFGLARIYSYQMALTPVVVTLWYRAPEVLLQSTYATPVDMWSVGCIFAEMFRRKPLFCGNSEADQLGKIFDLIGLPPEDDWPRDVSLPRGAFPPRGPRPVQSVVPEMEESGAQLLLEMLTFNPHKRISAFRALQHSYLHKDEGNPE
T3 sequence (P24385 whole entry partner, species assumed): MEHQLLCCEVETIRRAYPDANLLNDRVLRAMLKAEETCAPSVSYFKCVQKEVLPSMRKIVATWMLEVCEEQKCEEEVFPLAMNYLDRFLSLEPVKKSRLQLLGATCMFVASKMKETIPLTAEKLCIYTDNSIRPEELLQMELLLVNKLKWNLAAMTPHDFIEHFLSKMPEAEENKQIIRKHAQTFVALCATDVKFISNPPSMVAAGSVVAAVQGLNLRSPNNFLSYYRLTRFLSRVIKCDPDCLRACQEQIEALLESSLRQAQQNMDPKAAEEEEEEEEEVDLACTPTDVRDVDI
Method in brief: as §1

[1] = In Vitro Enzyme Assay, cyclin B/CDK1, read-out: CDK1 IC50
[2] = In Vitro Enzyme Assay, cyclin E/CDK2, read-out: CDK2 IC50
[3] = BT474 cells, 6 days, SRB; read-out: In Vitro Cellular Activity IC50 BT474
[4] = In Vitro Enzyme Assay, cyclin D1/cdk 4, read-out: CDK4 IC50
[5] = In Vitro Enzyme Assays, read-out: CDK1 IC50
[6] = Homo sapiens, HCT-116, 72 h, three days
[7] = Homo sapiens, LoVo, 72 h, three days
[8] = In Vitro Enzyme Assays, read-out: CDK2 IC50
[9] = Homo sapiens, MCF7, 72 h, three days
[10] = Homo sapiens, BT-474, 144 h, BT474 cells, SRB, 6 days; read-out: In Vitro Cellular Activity IC50 BT474
[11] = In Vitro Enzyme Assays, 200 μM ATP, read-out: CDK4 IC50
[12] = Homo sapiens, HCT-116, 72 h, 3 days
[13] = Homo sapiens, LoVo, 72 h, 3 days
[14] = Homo sapiens, MCF7, 72 h, 3 days
[15] = Homo sapiens, BT-474, 144 h, BT474 cells, 6 days, SRB; read-out: In Vitro Cellular Activity IC50 BT474
[16] = In Vitro Enzyme Assay, read-out: CDK1 IC50
[17] = In Vitro Enzyme Assay, read-out: CDK2 IC50
[18] = In Vitro Enzyme Assay, read-out: CDK4 IC50

T1 sequence (P06493 whole entry): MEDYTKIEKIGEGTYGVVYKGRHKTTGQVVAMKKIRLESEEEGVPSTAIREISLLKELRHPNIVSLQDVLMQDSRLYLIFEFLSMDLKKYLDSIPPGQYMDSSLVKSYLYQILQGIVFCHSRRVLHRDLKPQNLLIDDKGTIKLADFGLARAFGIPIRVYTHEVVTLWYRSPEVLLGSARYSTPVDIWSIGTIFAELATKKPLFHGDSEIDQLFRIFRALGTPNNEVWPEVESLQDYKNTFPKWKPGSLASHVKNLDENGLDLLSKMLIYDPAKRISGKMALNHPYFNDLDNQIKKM
T1 sequence (P14635 whole entry partner): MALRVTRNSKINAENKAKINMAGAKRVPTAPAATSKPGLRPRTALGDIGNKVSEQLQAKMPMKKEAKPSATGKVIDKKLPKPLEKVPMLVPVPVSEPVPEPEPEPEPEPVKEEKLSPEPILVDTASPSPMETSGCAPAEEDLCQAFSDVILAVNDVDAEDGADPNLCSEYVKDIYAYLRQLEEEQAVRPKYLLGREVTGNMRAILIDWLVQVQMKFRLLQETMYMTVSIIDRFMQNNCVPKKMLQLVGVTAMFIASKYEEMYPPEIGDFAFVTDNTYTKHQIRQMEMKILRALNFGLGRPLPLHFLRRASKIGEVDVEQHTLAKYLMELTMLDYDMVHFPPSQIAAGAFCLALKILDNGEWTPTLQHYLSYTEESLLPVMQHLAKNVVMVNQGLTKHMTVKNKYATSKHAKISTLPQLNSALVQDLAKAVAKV

Row | Compound | IC50 (cyclin B/CDK1 enzyme; [1]) [µM] | IC50 (cyclin E/CDK2 enzyme; [2]) [µM] | IC50 (cyclin D1/cdk 4 enzyme; [4]) [µM] | IC50 (cyclin B/CDK1 enzyme; [5]) [µM] | IC50 (cyclin E/CDK2 enzyme; [8]) [µM] | IC50 (cyclin D1/cdk 4 enzyme; [11]) [µM] | IC50 (HCT-116; 3 days) [µM] | IC50 (LoVo; 3 days) [µM] | IC50 (MCF-7; 3 days) [µM] | IC50 (BT474; [3]) [µM] | IC50 (HCT-116; [6]) [µM] | IC50 (LoVo; [7]) [µM] | IC50 (MCF-7; [9]) [µM] | IC50 (BT474; [10]) [µM] | IC50 (HCT-116; [12]) [µM] | IC50 (LoVo; [13]) [µM] | IC50 (MCF-7; [14]) [µM] | other results
1 | 6-Benzofuran-2-yl-4-[(3,4-dihydroxy-benzylamino)-methylene]-4H-isoquinoline-1,3-dione [Example 643] | > 50 | > 50 | 3.5 |  |  |  | 14.9 | 11.7 | 9.2 | 13.4 |  |  |  |  |  |  |  | 
2 | 6-Bromo-4-[(4-methoxy-phenylamino)-methylene]-1,4-dihydro-2H-isoquinolin-3-one & 8-Bromo-4-[(4-methoxy-phenylamino)-methylene]-1,4-dihydro-2H-isoquinolin-3-one [Example 844] | > 50 | > 50 | 34.7 |  |  |  | 28 | 26.7 | 26.1 | 27.1 |  |  |  |  |  |  |  | 
3 | 6-Bromo-4-[(4-pyrrolidin-1-ylmethyl-phenylamino)-methylene]-1,4-dihydro-2H-isoquinolin-3-one & 8-Bromo-4-[(4-pyrrolidin-1-ylmethyl-phenylamino)-methylene]-1,4-dihydro-2H-isoquinolin-3-one [Example 846] | > 50 | > 50 | 2.5 |  |  |  | 2.6 | 4.8 | 4.9 | 10.7 |  |  |  |  |  |  |  | 
4 | 6-Bromo-4-{[4-(4-methyl-piperazin-1-yl)-phenylamino]-methylene}-1,4-dihydro-2H-isoquinolin-3-one & 8-Bromo-4-{[4-(4-methyl-piperazin-1-yl)-phenylamino]-methylene}-1,4-dihydro-2H-isoquinolin-3-one [Example 845] | > 50 | > 50 | 2.3 |  |  |  | 4.2 | 2.5 | 4.5 | 7.5 |  |  |  |  |  |  |  | 
5 | CC(O)C1CCCN1Cc1ccc(N/C=C2\C(=O)NC(=O)c3ccc(I)cc32)cc1 (single isomer, unassigned) [Example 374, 4-({4-[2-(1-Hydroxy-ethyl)-pyrrolidin-1-ylmethyl]-phenylamino}-methylene)-6-iodo-4H-isoquinoline-1,3-dione] |  |  |  | > 50 | 37.1 | 1.3 |  |  |  |  | 3.2 | 3.8 | 1 | 0.46 |  |  |  | 
6 | CC1CN(C)[C@H](C)CN1c1ccc(N/C=C2\C(=O)NC(=O)c3ccc(I)cc32)cc1 (stereo in doubt) [Example 233, (4Z)-6-Iodo-4-[({4-[(2S,5R)-2,4,5-trimethylpiperazin-1-yl]phenyl}amino)methylene]-isoquinoline-1,3(2H,4H)-dione] |  |  |  | > 50 | > 50 | 3 |  |  |  |  | 5 | 4.4 | 1 | 6.9 |  |  |  | 
7 | CN1CCN(CCN(C)c2ccc(NC=C3C(=O)NC(=O)c4ccc(Br)cc43)cc2)CC1 (stereo in doubt) [Example 261, (4Z)-6-Bromo-4-{[(4-{methyl[2-(4-methylpiperazin-1-yl)ethyl]amino}phenyl)amino]methylene}isoquinoline-1,3(2H,4H)-dione] |  |  |  | > 50 | > 50 | 2.6 |  |  |  |  | 3 | 10 | 9.2 | 10 |  |  |  | 
8 | O=C1NC(=O)c2ccc(I)cc2/C1=C/Nc1ccc2ncccc2c1 [Example 272, (4Z)-6-Iodo-4-[(quinolin-6-ylamino)methylene]isoquinoline-1,3(2H,4H)-dione] |  |  |  | > 50 | 39.7 |  |  |  |  |  | 4.2 | 8.9 | 3.1 | 7.2 |  |  |  | 
9 | CONCCCc1ccc(N/C=C2\C(=O)NC(=O)c3ccc(Br)cc32)cc1 [Example 875, (4Z)-6-bromo-4-[({4-[3-(methoxyamino)propyl]phenyl}amino)methylene]isoquinoline-1,3(2H,4H)-dione] |  |  |  |  |  |  |  |  |  |  |  |  |  |  | 9.5 | 12.5 | 10.3 | IC50 (cyclin B/CDK1 enzyme; [16]): 15.1 µM; IC50 (cyclin E/CDK2 enzyme; [17]): 2.8 µM; IC50 (cyclin D1/cdk 4 enzyme; [18]): 1.9 µM
10 | CN(C)CCCN(C)c1ccc(N/C=C2\C(=O)NC(=O)c3ccc(Br)cc32)cc1 [Example 876, (4Z)-6-Bromo-4-[({4-[[3-(dimethylamino)propyl](methyl)amino]phenyl}amino)methylene]isoquinoline-1,3(2H,4H)-dione] |  |  |  |  |  |  |  |  |  |  |  |  |  |  | 4.2 | 8.6 | 5.3 | IC50 (cyclin B/CDK1 enzyme; [16]): > 50 µM; IC50 (cyclin E/CDK2 enzyme; [17]): > 50 µM; IC50 (cyclin D1/cdk 4 enzyme; [18]): 14.4 µM
11 | CN1CCC(Oc2ccc(N/C=C3\C(=O)NC(=O)c4ccc(Br)cc43)cc2)C1 (centres unmarked) [Example 877, (4Z)-6-Bromo-4-[({4-[(1-methylpyrrolidin-3-yl)oxy]phenyl}amino)methylene]isoquinoline-1,3(2H,4H)-dione] |  |  |  |  |  |  |  |  |  |  |  |  |  |  | 3.9 | 6.2 | 4.4 | IC50 (cyclin B/CDK1 enzyme; [16]): > 50 µM; IC50 (cyclin E/CDK2 enzyme; [17]): > 50 µM; IC50 (cyclin D1/cdk 4 enzyme; [18]): 42.5 µM

More lines, main results first:

Row | IC50 (cyclin B/CDK1 enzyme; [1]) [µM] | IC50 (cyclin E/CDK2 enzyme; [2]) [µM] | IC50 (cyclin D1/cdk 4 enzyme; [4]) [µM] | IC50 (cyclin B/CDK1 enzyme; [5]) [µM] | IC50 (cyclin E/CDK2 enzyme; [8]) [µM] | IC50 (cyclin D1/cdk 4 enzyme; [11]) [µM] | Compound | IC50 (HCT-116; 3 days) [µM] | IC50 (LoVo; 3 days) [µM] | IC50 (MCF-7; 3 days) [µM] | IC50 (BT474; [3]) [µM] | IC50 (HCT-116; [6]) [µM] | IC50 (LoVo; [7]) [µM] | IC50 (MCF-7; [9]) [µM] | IC50 (BT474; [10]) [µM] | IC50 (HCT-116; [12]) [µM] | IC50 (LoVo; [13]) [µM] | IC50 (MCF-7; [14]) [µM] | other results
12 |  |  |  | > 50 | > 50 | 0.05 | O=C1NC(=O)c2ccc(-c3ccsc3)cc2/C1=C/Nc1ccc(CN2CCC[C@@H]2CO)cc1 (stereo in doubt) [Example 421, 4-{[4-(2-Hydroxymethyl-pyrrolidin-1-ylmethyl)-phenylamino]-methylene}-6-thiophen-3-yl-4H-isoquinoline-1,3-dione] |  |  |  |  |  |  |  |  | 2.6 | 2.7 | 3.8 | IC50 (BT474; [15]): 2.9 µM
13 | > 50 | > 50 | 2.3 |  |  |  | CN1CCN(c2ccc(NC=C3C(=O)NCc4cc(Br)ccc43)cc2)CC1 [Example 842, 7-Bromo-4-{[4-(4-methyl-piperazin-1-yl)-phenylamino]-methylene}-1,4-dihydro-2H-isoquinolin-3-one] |  |  |  |  |  |  |  |  | 4.5 | 5.7 |  | IC50 (BT474; [15]): 7.2 µM
